In this experiment the test system is gp41 mediated cell–cell fusion (HXB2 strain HIV-1 Env; HL2-3 / TZM-bl cells). In kind it is cell-based. The note with it: Figure 3, TZM-bl target and HL2/3 effector cells, 6 h coculture at 37 °C, luciferase, average ± S.E.M., n = 3, read-out: IC50, inhibition of cell–cell fusion. Here is the method:
Effector cells were the Env expressing cells HL2-3, a HeLa-derived cell line which constitutively expresses the HXB2 strain of the HIV-1 Env glycoprotein along the Tat protein, and as target cells, TZM-bl cells were used. The fusion of HL2-3 cells with TZM-bl cells was assessed through luciferase expression. The TZM-bl cells were seeded at 2 × 10^4 cells/well overnight in 96-well plates. The medium was then aspirated from each well and replaced with serum-free DMEM containing 40 μg/mL DEAE-dextran. […] Upon addition of the peptides, the HL2-3 cells were added to the TZM-bl cells in serum-free DMEM containing 40 μg/mL DEAE-dextran at a 1:1 cell ratio. The cells were cocultured at 37 °C for 6 h to allow the fusion to occur. Luciferase activity was analyzed using the Steady-Glo luciferase assay kit (Promega). Fitting of the data points was performed according to the following equation, derived from Hills’ equation [drawing 1]
For the fitting, we uploaded the X and Y values of the data into a nonlinear least-square regression (curve fitter) program that provided the IC50 value (parameter A).
A one-tailed Student’s T-test was used. P < 0.05 was considered significant. Analyses were done using GraphPad Prism (data analysis software) version 6.05 (*P ≤ 0.05, **P ≤ 0.01, and ***P ≤ 0.001).

Each structure is given as a SMILES string. Where two headings read alike, the source gives them in different places. Residues, ends and D or L forms follow the SMILES beside them.

In general, IC50 refers to the concentration needed to halve the response being measured. In the case of `CC[C@H](C)[C@H](NC(=O)CNC(=O)[C@H](Cc1c[nH]c2ccccc12)NC(=O)[C@@H](NC(=O)[C@@H](NC(=O)[C@H](CC(C)C)NC(=O)[C@H](CCC(N)=O)NC(=O)[C@H](CC(C)C)NC(=O)[C@H](CC(C)C)NC(=O)[C@H](C)NC(=O)[C@H](CCC(N)=O)NC(=O)[C@H](CCC(N)=O)NC(=O)[C@H](C)NC(=O)[C@H](C)NC(=O)[C@@H](NC(=O)[C@H](C)NC(=O)[C@H](C)NC(=O)[C@H](CC(C)C)NC(=O)[C@H](CC(C)C)NC(=O)[C@H](CC(N)=O)NC(=O)[C@H](CC(N)=O)NC(=O)[C@H](CCC(N)=O)NC(=O)[C@H](CCC(N)=O)NC(=O)[C@H](CCC(N)=O)NC(=O)[C@@H](NC(=O)[C@@H](NC(=O)CNC(=O)[C@@H](N)CO)[C@@H](C)CC)C(C)C)[C@@H](C)CC)[C@@H](C)O)C(C)C)C(=O)N[C@@H](CCCCN)C(=O)N[C@@H](CCC(N)=O)C(=O)N[C@@H](CC(C)C)C(=O)N[C@@H](CCC(N)=O)C(=O)N[C@@H](C)C(=O)N[C@@H](CCCNC(=N)N)C(=O)N[C@H](C(=O)N[C@@H](CC(C)C)C(N)=O)[C@@H](C)CC` [N36 3A] (H-SGIVQQQNNLLAAIAAQQALLQLTVWGIKQLQARIL-NH2), the IC50 by setting is: (0 mM Ca2+) 2980 ± 1070 nM; (2 mM Ca2+) 262 ± 180 nM; (5 mM Ca2+) 800 ± 140 nM.
`CC[C@H](C)[C@H](NC(=O)[C@H](CCC(=O)O)NC(=O)[C@H](CCCNC(=N)N)NC(=O)[C@H](C)NC(=O)[C@H](Cc1c[nH]c2ccccc12)NC(=O)[C@H](CCC(=O)O)NC(=O)[C@H](CCSC)NC(=O)[C@@H](N)Cc1c[nH]c2ccccc12)C(=O)N[C@@H](CC(N)=O)C(=O)N[C@@H](CC(N)=O)C(=O)N[C@@H](Cc1ccc(O)cc1)C(=O)N[C@H](C(=O)N[C@@H](CO)C(=O)N[C@@H](CC(C)C)C(=O)N[C@H](C(=O)N[C@@H](Cc1c[nH]cn1)C(=O)N[C@@H](CO)C(=O)N[C@@H](CC(C)C)C(=O)N[C@H](C(=O)N[C@@H](CCC(=O)O)C(=O)N[C@@H](CCC(=O)O)C(=O)N[C@@H](CO)C(=O)N[C@@H](CCC(N)=O)C(=O)N[C@@H](CC(N)=O)C(=O)N[C@@H](CCC(N)=O)C(=O)N[C@@H](CCC(N)=O)C(=O)N[C@@H](CCC(=O)O)C(=O)N[C@@H](CCCCN)C(=O)N[C@@H](CC(N)=O)C(=O)N[C@@H](CCC(=O)O)C(=O)N[C@@H](CCC(N)=O)C(=O)N[C@@H](CCC(=O)O)C(=O)N[C@@H](CC(C)C)C(=O)N[C@@H](CC(C)C)C(N)=O)[C@@H](C)CC)[C@@H](C)CC)[C@@H](C)O` [C34 D-A]: the IC50 was determined as 0.6 ± 0.4 nM (0 mM Ca2+) and 1.5 ± 0.7 nM (2 mM Ca2+).

For the origin of these results see PMC9454089, “Structural and Mechanistic Evidence for Calcium Interacting Sites in the HIV Transmembrane Protein gp41 Involved in Membrane Fusion” (Biochemistry, 2022).
